The source of these data is the supplement of paper PMC11821682.

One experiment relates to Danio rerio embryo. The experiment can be described thus: BMC10 any morphological effect or mortality at 120 hpf; higher = less toxic.
The next experiment deals with HL-60. The experiment can be described thus: Cell Health Index (toxicity pseudo-probability over dose series) (index 0-1); higher = more cytotoxic / cell stress.
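Throughout, for Cell Health Index (toxicity pseudo-probability over dose series): HL-60 cells exposed 4 h at 37 °C to ten threefold dilutions spanning 5 nM to 100 µM, multiparametric flow cytometry features scored by machine-learning classification.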

Regarding `COC(=O)C1=CO[C@@H](O[C@@H]2O[C@H](CO)[C@@H](O)[C@H](O)[C@H]2O)[C@@H]2C(CO)=CC[C@H]12` [Geniposide], in the experiment on Danio rerio embryo, the “BMC10 any morphological effect or mortality” value is over 100 µM. Besides, in the experiment with HL-60, the “Cell Health Index” value is 0.251.

As to `Cc1nnnn1/N=C\c1ccc(O)c(C(c2ccc(O)cc2)c2cc(/C=N/n3nnnc3C)ccc2O)c1` (stereo not given), the “BMC10 any morphological effect or mortality” value with Danio rerio embryo was over 100 µM. Moreover, the “Cell Health Index” value with HL-60 was determined as 0.389.

`O=C(O[C@@H]1Cc2c(O)cc(O)cc2O[C@@H]1c1ccc(O)c(O)c1)c1cc(O)c(O)c(O)c1` [(-)-Epicatechin gallate]: the “BMC10 any morphological effect or mortality” value in the experiment on Danio rerio embryo is over 100 µM. In addition, the “Cell Health Index” value in the experiment on HL-60 is 0.807.

In the case of `CCCCCCOC(=O)NC(=N)c1ccc(NCc2nc3cc(C(=O)N(CCC(=O)OCC)c4ccccn4)ccc3n2C)cc1` [Dabigatran etexilate], the “BMC10 any morphological effect or mortality” value in the experiment with Danio rerio embryo is over 100 µM. In the experiment on HL-60, the “Cell Health Index” value stood at 0.832.

In the case of `CN(C)C(=O)COC(=O)Cc1ccc(OC(=O)c2ccc(NC(=N)N)cc2)cc1.CS(=O)(=O)O` [Camostat], the “BMC10 any morphological effect or mortality” value with Danio rerio embryo is over 100 µM. In addition, the “Cell Health Index” value in the experiment with HL-60 amounted to 0.162.

Turning to `CCCCN1C[C@H](O)[C@@H](O)[C@H](O)[C@H]1CO.Cl` [Miglustat], the “BMC10 any morphological effect or mortality” value in the experiment with Danio rerio embryo is over 100 µM. Further, the “Cell Health Index” value in the experiment with HL-60 came out at 0.184.

As for `C[C@H]1[C@H](C)CC[C@]2(C(=O)O)CC[C@]3(C)C(=CC[C@@H]4[C@@]5(C)C[C@@H](O)[C@H](O)[C@@](C)(CO)[C@@H]5CC[C@]43C)[C@H]12` [Asiatic acid], the “BMC10 any morphological effect or mortality” value with Danio rerio embryo is over 100 µM. For the same molecule, the “Cell Health Index” value with HL-60 worked out at 0.478.

Take `Cc1ccc2c(=O)c3cccc(CC(=O)O)c3oc2c1C` [Vadimezan]: in the experiment on Danio rerio embryo, the “BMC10 any morphological effect or mortality” value is over 100 µM. In addition, the “Cell Health Index” value with HL-60 was determined as 0.169.

On to `COc1ccc(C[C@H]2COC(=O)[C@@H]2Cc2ccc(O[C@@H]3O[C@H](CO)[C@@H](O)[C@H](O)[C@H]3O)c(OC)c2)cc1OC` [Arctiin], for which the “BMC10 any morphological effect or mortality” value in the experiment on Danio rerio embryo was over 100 µM. Further, the “Cell Health Index” value in the experiment with HL-60 turned out to be 0.192.

In the case of `Cc1ccnc2c1NC(=O)c1cccnc1N2C1CC1` [Nevirapine], in the experiment with Danio rerio embryo, the “BMC10 any morphological effect or mortality” value is over 100 µM. Moreover, the “Cell Health Index” value in the experiment on HL-60 is 0.185.

Regarding `CC(C)(C)NC(=O)N[C@H](C(=O)N1C[C@H]2[C@@H]([C@H]1C(=O)NC(CC1CCC1)C(=O)C(N)=O)C2(C)C)C(C)(C)C` (stereo not given in full) [Boceprevir], in the experiment on Danio rerio embryo, the “BMC10 any morphological effect or mortality” value is over 100 µM. The “Cell Health Index” value in the experiment on HL-60 was 0.228.

On to `CCC(CC)COC(=O)[C@H](C)N[P@](=O)(OC[C@H]1O[C@@](C#N)(c2ccc3c(N)ncnn23)[C@H](O)[C@@H]1O)Oc1ccccc1` [Remdesivir], for which the “BMC10 any morphological effect or mortality” value with Danio rerio embryo is over 100 µM. For the same molecule, the “Cell Health Index” value in the experiment on HL-60 is 0.275.

Regarding `Cl.N=C(N)NC(=N)N1CCOCC1` [Moroxydine], the “BMC10 any morphological effect or mortality” value in the experiment on Danio rerio embryo was over 100 µM. Also, in the experiment on HL-60, the “Cell Health Index” value came to 0.19.

With `Cc1nc(N(C)C(=O)Cc2ccc(-c3ccccn3)cc2)sc1S(N)(=O)=O` [Pritelivir], the “BMC10 any morphological effect or mortality” value in the experiment with Danio rerio embryo was over 100 µM. For the same molecule, the “Cell Health Index” value in the experiment with HL-60 was found to be 0.209.

On to `COC(=O)N[C@H](C(=O)N[C@@H](Cc1ccccc1)[C@@H](O)CN(Cc1ccc(-c2ccccn2)cc1)NC(=O)[C@@H](NC(=O)OC)C(C)(C)C)C(C)(C)C` [Atazanavir], for which the “BMC10 any morphological effect or mortality” value with Danio rerio embryo is over 100 µM. The “Cell Health Index” value in the experiment on HL-60 is 0.374.

With `O[C@H]1[C@@]2([H])[C@](CC[C@]2([H])[C@@](CC/C=C(C)/C)(C)O[C@@H]3O[C@H](CO[C@H]4[C@H](O)[C@@H](O)[C@@H](O)CO4)[C@@H](O)[C@H](O)[C@H]3O)(C)[C@]5(C)CC[C@]6([H])[C@@](CC[C@H](O[C@]7([H])O[C@H](CO)[C@@H](O)[C@H](O)[C@H]7O[C@@]8([H])[C@H](O)[C@@H](O)[C@H](O)[C@@H](CO)O8)C6(C)C)(C)[C@@]5([H])C1` [Ginsenoside Rb2], the “BMC10 any morphological effect or mortality” value in the experiment with Danio rerio embryo is over 100 µM. Further, the “Cell Health Index” value in the experiment with HL-60 was 0.173.

As for `COC(=O)N[C@H](C(=O)NNC[C@H](O)[C@H](Cc1ccccc1)NC(=O)[C@@H](NC(=O)OC)C(C)(C)C)C(C)(C)C` [Des(benzylpyridyl) Atazanavir], in the experiment with Danio rerio embryo, the “BMC10 any morphological effect or mortality” value was over 100 µM. Besides, the “Cell Health Index” value in the experiment with HL-60 came to 0.207.

Regarding `C=C[C@H]1C[N@@]2CC[C@H]1C[C@H]2[C@H](O)c1ccnc2ccc(OC)cc12` [Quinine], the “BMC10 any morphological effect or mortality” value in the experiment with Danio rerio embryo is over 100 µM. The “Cell Health Index” value in the experiment with HL-60 turned out to be 0.249.

Take `Nc1nc(S)c2nc[nH]c2n1` [Thioguanine]: the “BMC10 any morphological effect or mortality” value in the experiment on Danio rerio embryo is over 100 µM. Besides, the “Cell Health Index” value in the experiment on HL-60 was 0.294.

Take `CC(C)CC(=O)N[C@H](C(=O)N[C@H](C(=O)N[C@@H](CC(C)C)[C@@H](O)CC(=O)N[C@@H](C)C(=O)N[C@@H](CC(C)C)[C@@H](O)CC(=O)O)C(C)C)C(C)C` [Pepstatin A]: the “BMC10 any morphological effect or mortality” value with Danio rerio embryo was over 100 µM. Besides, in the experiment with HL-60, the “Cell Health Index” value was 0.154.
